The values that follow come from patent publication US12590062B2, “PD-1/PD-L1 inhibitors” (Gilead Sciences, Inc., priority 2017, dated 2026).

In test [1] the target is PD-1/PD-L1 (Homo sapiens, UniProt Q9NZQ7). Briefly: PD-1/PD-L1 biochemical protein-protein interaction assay (ALPHA). The test is classed as binding. As to conditions: 0.3 nM His tagged PD-L1, 2.5 nM biotinylated Fc-PD-1, 60 minutes at 25° C., read-out: IC50 PD-L1-PD-1 Alpha IC50-mono PD-L1-fcP-D1. The essentials: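 Extracellular-domain binding of His-tagged PD-L1 (0.3 nM final) to biotinylated Fc-PD-1 (2.5 nM final) was measured by ALPHA in 25 mM Hepes pH 7.4, 150 mM NaCl, 3.4 mM EDTA, 0.005% Tween 20, 0.01% BSA. After 60 min at 25° C, anti-His acceptor and streptavidin donor beads were added; IC50 from four-parameter fits.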
Chain of PD-1/PD-L1 (Q9NZQ7 19-238 limits assumed): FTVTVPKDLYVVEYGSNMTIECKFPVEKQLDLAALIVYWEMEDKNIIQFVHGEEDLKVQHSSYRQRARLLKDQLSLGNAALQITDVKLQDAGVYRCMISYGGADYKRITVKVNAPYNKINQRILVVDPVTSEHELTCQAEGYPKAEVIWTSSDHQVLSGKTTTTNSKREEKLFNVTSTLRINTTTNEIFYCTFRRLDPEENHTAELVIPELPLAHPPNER

Test [2] addresses T1, interaction between the recombinant extracellular domain (ECD) of PD-1 and native cell-bound PD-L1 (Homo sapiens, UniProt Q9NZQ7).
T1 construct: expressed in transfected cells
Briefly: CHO/PD-L1 cell capture assay. The note with it: CHO cells overexpressing PD-L1, pre-incubated 1 hr with compound, captured on biotinylated Fc-PD-1 coated plates, 75 min at room temperature. The class given is cell-based. The essentials:
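CHO cells stably overexpressing PD-L1 were pre-incubated 1 hr with compound, then captured 75 min at room temperature on biotinylated Fc-PD-1 ECD bound to streptavidin plates. After glutaraldehyde/Draq5 fixation-staining, captured cells were counted by high-content microscopy; EC50 from four-parameter dose-response fits.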

The target of test [3] is T2, PD-1/PD-L1 interaction (Homo sapiens, UniProt Q9NZQ7).
T2 construct: expressed in transfected cells; host or cells: CHO cells (aAPC-PD-L1) co-cultured with Jurkat cells overexpressing PD-1 and an NFAT-luciferase reporter
T2 sequence (Q9NZQ7 19-290): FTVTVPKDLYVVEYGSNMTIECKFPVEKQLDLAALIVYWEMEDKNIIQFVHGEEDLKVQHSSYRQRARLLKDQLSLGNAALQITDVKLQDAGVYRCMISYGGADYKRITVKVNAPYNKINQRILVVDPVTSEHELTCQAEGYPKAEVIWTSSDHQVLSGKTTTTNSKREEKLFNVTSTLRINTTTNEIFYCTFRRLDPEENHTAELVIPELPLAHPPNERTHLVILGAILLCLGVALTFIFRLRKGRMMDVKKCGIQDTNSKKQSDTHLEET
Briefly: PD-1/PD-L1 NFAT reporter co-culture assay. The class given is cell-based. The note with it: Jurkat PD-1 NFAT-luciferase cells co-cultured with aAPC-PD-L1 CHO cells, 6 hrs at 37° C.; read-out: EC50 NFAT Luciferase. In a few lines:
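Jurkat cells overexpressing PD-1 with NFAT-luciferase mixed with compounds and plated onto CHO aAPCs expressing anti-CD3 and PD-L1, RPMI with 2% FBS. Co-culture 6 h at 37 °C; luminescence read with ONE-Glo. EC50 from four-parameter fit.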

For test [4], the target named is T3, PD-L1 (Homo sapiens, UniProt Q9NZQ7).
T3 construct: determine if they can specifically dimerize the extracellular domains of PD-L1
T3 sequence (Q9NZQ7 19-238 limits assumed): as the sequence (Q9NZQ7 19-238 limits assumed) above
T3 sequence (Q9NZQ7 19-238 limits assumed): as above
Briefly: PD-L1/PD-L1 dimerization biochemical protein-protein interaction assay (ALPHA). As to conditions: compound-induced PD-L1 dimerization, head prints '1 nM' (0.5 nM His-tagged PD-L1 and 0.5 nM FLAG-tagged PD-L1), read-out: AC50 PDL1 Dimer Alpha 1 nM. The test is classed as binding. In a few lines: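 ALPHA proximity assay of compound-induced dimerization of 0.5 nM His-tagged and 0.5 nM FLAG-tagged PD-L1 extracellular domains in Hepes pH 7.4 buffer, 2 h at 25 °C. Anti-His acceptor then anti-FLAG donor beads, 60 min each; AC50 from four-parameter fit.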

T1 sequence (Q9NZQ7 19-290): as the sequence (Q9NZQ7 19-290) above

Regarding `N#Cc1cncc(COc2nc(O[C@H]3CCc4c(-c5cccc6c5CC[C@@H]6Oc5nc(OCc6cncc(C#N)c6)c(CNC[C@@H](O)CC(=O)O)cc5Br)cccc43)c(Br)cc2CNC[C@@H](O)CC(=O)O)c1` [Example 4, (3S,3′S)-4,4′-((((((1S,1′S)-2,2′,3,3′-tetrahydro-1H,1′H-[4,4′-biindene]-1,1′-diyl)bis(oxy))bis(5-bromo-2-((5-cyanopyridin-3-yl)methoxy)pyridine-6,3-diyl))bis(methylene))bis(azanediyl))bis(3-hydroxybutanoic acid)], in test [1], the IC50 turned out to be 0.0001 µM. Besides, the results for the 50% effective concentration (EC50) in test [2] and in test [3] were 0.0156 µM and 0.017 µM, respectively. In addition, the AC50 in test [4] was 0.0672 µM.
As for `Cc1c(COc2cc(OCc3cncc(C#N)c3)c(CNC[C@H](O)CC(=O)O)cc2Cl)cccc1-c1cccc(COc2cc(OCc3cncc(C#N)c3)c(CNC[C@H](O)CC(=O)O)cc2Cl)c1C` [Example 162, (3R,3′R)-4,4′-((((((2,2′-dimethyl-[1,1′-biphenyl]-3,3′-diyl)bis(methylene))bis(oxy))bis(5-chloro-2-((5-cyanopyridin-3-yl)methoxy)-4,1-phenylene))bis(methylene))bis(azanediyl))bis(3-hydroxybutanoic acid)], in test [1], the half-maximal inhibitory concentration (IC50) amounted to 0.0002 µM. Besides, the EC50 was found to be 0.263 µM in test [2] and 0.16 µM in test [3]. For the same molecule, in test [4], the AC50 amounted to 0.236 µM.

As a reminder, the IC50 is the concentration that inhibits the measured activity by half. By EC50 is commonly meant the concentration at which the effect is half-maximal. For orientation: AC50 means the midpoint of the concentration-response curve, whichever way the signal moves.
